From patent publication US8658383B2, “Sweet taste receptor-expressing construct, cell body expressing the same, and utilization thereof” (T. Hasegawa Co., Ltd., priority 2009, dated 2014)
Residues, ends and D or L forms follow the SMILES beside them.

Key:
[1] = target: T1, human sweet taste receptor (hT1R2+hT1R3) (Homo sapiens, UniProt Q7RTX0+Q8TE23); experiment: Fluorescent microscope calcium imaging (Fura-2 AM) of cultured cell strains (A) to (C); conditions: for cell response (response cell number of 100 randomly selected cells): Aspartame final concentration 10 mM, FIG. 11
T1 sequence (Q8TE23 20-839): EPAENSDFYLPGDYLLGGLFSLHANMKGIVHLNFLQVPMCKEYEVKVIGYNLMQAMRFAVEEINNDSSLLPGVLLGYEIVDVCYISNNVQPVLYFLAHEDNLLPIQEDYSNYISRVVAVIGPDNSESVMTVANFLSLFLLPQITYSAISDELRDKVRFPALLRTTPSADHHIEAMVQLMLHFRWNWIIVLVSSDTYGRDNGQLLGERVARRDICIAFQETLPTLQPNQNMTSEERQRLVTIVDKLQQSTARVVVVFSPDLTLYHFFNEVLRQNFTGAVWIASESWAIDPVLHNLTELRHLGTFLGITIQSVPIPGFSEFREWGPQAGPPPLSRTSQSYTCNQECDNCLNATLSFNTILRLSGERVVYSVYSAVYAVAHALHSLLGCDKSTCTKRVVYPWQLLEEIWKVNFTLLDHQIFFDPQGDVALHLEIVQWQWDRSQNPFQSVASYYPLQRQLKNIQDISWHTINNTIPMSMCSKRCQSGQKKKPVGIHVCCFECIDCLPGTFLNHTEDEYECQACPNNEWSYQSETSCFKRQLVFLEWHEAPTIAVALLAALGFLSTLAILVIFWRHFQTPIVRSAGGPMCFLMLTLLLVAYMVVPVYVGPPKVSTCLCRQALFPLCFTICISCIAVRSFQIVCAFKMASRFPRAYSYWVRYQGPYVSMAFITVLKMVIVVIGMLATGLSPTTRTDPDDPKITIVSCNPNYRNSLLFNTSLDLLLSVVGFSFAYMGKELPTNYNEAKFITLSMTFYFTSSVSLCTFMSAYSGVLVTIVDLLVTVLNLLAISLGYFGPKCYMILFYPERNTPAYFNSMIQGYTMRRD
T1 sequence (Q7RTX0 21-852): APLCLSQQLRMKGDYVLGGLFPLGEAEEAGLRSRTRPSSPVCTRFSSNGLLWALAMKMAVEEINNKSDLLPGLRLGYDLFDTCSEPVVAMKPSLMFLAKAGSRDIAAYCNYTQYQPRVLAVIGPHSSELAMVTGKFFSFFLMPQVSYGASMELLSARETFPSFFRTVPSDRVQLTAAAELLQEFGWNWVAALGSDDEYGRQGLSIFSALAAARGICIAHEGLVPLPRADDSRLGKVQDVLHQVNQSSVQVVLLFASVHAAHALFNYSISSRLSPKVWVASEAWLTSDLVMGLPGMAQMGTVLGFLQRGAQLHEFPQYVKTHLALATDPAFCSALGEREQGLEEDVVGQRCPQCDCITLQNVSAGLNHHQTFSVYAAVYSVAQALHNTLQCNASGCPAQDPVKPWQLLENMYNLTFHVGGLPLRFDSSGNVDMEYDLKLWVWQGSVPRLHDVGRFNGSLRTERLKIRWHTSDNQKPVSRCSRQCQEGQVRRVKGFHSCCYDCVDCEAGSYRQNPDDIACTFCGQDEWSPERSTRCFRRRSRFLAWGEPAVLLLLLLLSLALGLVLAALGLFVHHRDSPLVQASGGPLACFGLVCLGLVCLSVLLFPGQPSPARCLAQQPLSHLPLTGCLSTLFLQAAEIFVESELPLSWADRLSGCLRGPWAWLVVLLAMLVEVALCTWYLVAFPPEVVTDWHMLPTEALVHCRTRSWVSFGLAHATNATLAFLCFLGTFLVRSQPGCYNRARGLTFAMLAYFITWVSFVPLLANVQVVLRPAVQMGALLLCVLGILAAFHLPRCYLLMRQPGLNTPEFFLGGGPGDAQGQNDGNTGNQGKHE
Protocol: Fluorescent calcium imaging using a fluorescent microscope can be performed according to the following procedure.
First, cells are suspended in a low glucose (1,000 mg/ml) DMEM medium, from which hygromycin B has been removed, and each 40 to 80 thousands cells are seeded on each well of a 96-well plate (Greiner, Lumox).
Then, after cultured at 37° C. for 24 to 48 hours, a medium is removed and is replaced with a suitable amount of a HEPES buffer, and a HEPES buffer containing a fluorescent calcium indicator (Fura-2 AM) is further added.
After incubated at 27 to 37° C. for 30 to 60 minutes, an extracellular fluorescent indicator is removed, and this is finally replaced with a suitable amount of a HEPES buffer, and is allowed to stand at room temperature for 10 to 20 minutes. By adding thereto a sweet taste substance at a particular concentration or a solution of a sweet taste substance and a substance to be tested, taste stimulation is performed at room temperature. In the fluorescent indicator Fura-2 (excitation wavelength: 340 nm/380 nm, fluorescent wavelength: 510 nm), a fluorescent intensity of excitation at 340 nm is increased, and a fluorescent intensity of excitation at 380 nm is reduced, when a calcium ion concentration is increased.
Cells loaded with Fura-2 AM were excited at 340 nm and 380 nm, and a fluorescent image observed at 510 nm was taken using a fluorescent microscope and a CCD camera. While the image was taken, Aspartame at a final concentration of 10 mM was administered to cells and, thereafter, the image was continuously taken. From the field of the taken image, 100 cells were randomly selected, and the response cell number was counted.
Cells loaded with Fura-2 AM were excited at 340 nm and 380 nm, and a fluorescent image observed at 510 nm was taken using a fluorescent microscope and a CCD camera. While the image was taken, Aspartame at each final concentration of 0.1 mM, 0.5 mM, 1 mM, 2 mM and 5 mM was administered to cells and then the image was continuously taken.
Cells loaded with Fura-2 AM were excited at 340 nm and 380 nm, and a fluorescent image observed at 510 nm was taken by using a fluorescent microscope and a CCD camera. While the image was taken, Sucrose at each final concentration of 20 mM, 50 mM, 100 mM, 200 mM, 500 mM and 1 M was administered to cells and then the image was continuously taken.
Cells loaded with Fura-2 AM were excited at 340 nm and 380 nm, and a fluorescent image observed at 510 nm was taken by using a fluorescent microscope and a CCD camera. While the image was taken, sucrose at final concentration of 500 mM was administered to cells and then the image was continuously taken.

[2] = target: T1, human sweet taste receptor (hT1R2+hT1R3); experiment: Automated fluorescent calcium imaging (Fluo-4 AM, FlexStation 3) of cultured cell strain (A); assay type: cell-based; parameters: The sweet taste receptor subunits T1R2 and T1R3 include an entire part of each subunit; conditions: Average ± S.E., n = 2

COC(=O)[C@H](Cc1ccccc1)NC(=O)[C@@H](N)CC(=O)O [aspartame] (H-Asp-Phe-OMe)
cell response (response cell number of 100 randomly selected cells) ([1]; cultured cell strain (A)): very strong cell response was observed
cell response (response cell number of 100 randomly selected cells) ([1]; cultured cell strain (B), compared with strain (A)): weaker cell response was observed
cell response (response cell number of 100 randomly selected cells) ([1]; cultured cell strain (C), compared with strain (A)): weaker cell response was observed
sweet taste response (fluorescent images) ([1]; cultured cell strain (A), Aspartame in a range of 0.1 mM to 5 mM, FIG. 12): concentration-dependent sweet taste response was observed
Change amount of fluorescent intensity (ΔF) ([2]; aspartame 0.08 mM): 4.8 ± 0.1
Change amount of fluorescent intensity (ΔF) ([2]; aspartame 5 mM): 31.1 ± 2.4
